The text below walks through data of ChEMBL document CHEMBL1201862, “PubChem BioAssay data set” (2004).

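Compound exposure: 48 hours, 5 concentrations, 96-well plates. GI50 = concentration required for 50% inhibition of growth.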 The source made the active and inactive calls. Rule as the data show it: active = GI50 up to about 1.1 µM and inactive = higher.

Among the test systems are SNB-75; CAKI-1; DU-145; Hs-578T; MDA-MB-231; BT-549; UACC-257; SN12C; HL-60; SF-295; SK-MEL-5; MDA-MB-435; Malme-3M; A549; HT-29; SK-OV-3; U-251; SK-MEL-28; A498.
Common to all, as to assay: NCI-60 cell line screen, 48 h

With `Cc1ccc(/C=N/Nc2cc(C)c3cccc(C)c3n2)s1`, the GI50 in the experiment with SNB-75 is 11.9 µM (inactive); with CAKI-1 it was 15.8 µM (inactive); in the experiment on DU-145, 10.5 µM (inactive); in the experiment on Hs-578T, 13.9 µM (inactive); in the experiment on MDA-MB-231 it was > 10 µM (inactive); with BT-549, 5.45 µM (inactive). Further, the GI50 in the experiment with UACC-257 was 18.7 µM (inactive); in the experiment on SN12C it was 9.08 µM (inactive); in the experiment on HL-60, 3.28 µM (inactive); in the experiment on SF-295, 7.1 µM (inactive); in the experiment with SK-MEL-5 it was 9.86 µM (inactive); with MDA-MB-435, 7.14 µM (inactive). Moreover, the GI50 in the experiment with Malme-3M was 15.1 µM (inactive); in the experiment on A549, 6.31 µM (inactive); in the experiment with HT-29, 2.86 µM (inactive); with SK-OV-3, 16.4 µM (inactive); with U-251, 10.6 µM (inactive); with SK-MEL-28, 22.3 µM (inactive).

`[O-][S+](Cc1ccccc1)c1ccccc1Cn1cccc1` (configuration not stated): the GI50 is 74.3 µM (inactive) in the experiment on SNB-75; > 100 µM (inactive) in the experiment with CAKI-1; > 100 µM (inactive) in the experiment with DU-145; > 100 µM (inactive) in the experiment on Hs-578T; > 100 µM (inactive) in the experiment on MDA-MB-231; 61.1 µM (inactive) with BT-549. The GI50 with UACC-257 is > 100 µM (inactive); in the experiment on SN12C, > 100 µM (inactive); in the experiment with HL-60 it was > 100 µM (inactive); with SF-295, 60.4 µM (inactive); in the experiment on SK-MEL-5, > 100 µM (inactive); in the experiment on MDA-MB-435, 42.6 µM (inactive). For the same compound, the GI50 in the experiment with Malme-3M, in the experiment on A549, in the experiment on HT-29, with SK-OV-3, in the experiment with U-251 and with SK-MEL-28 was > 100 µM (inactive) throughout.

Turning to `C/C(=N\c1ccc(Cl)cc1)c1ccncc1`, the GI50 was > 100 µM (inactive) in the experiment on SNB-75; > 100 µM (inactive) in the experiment on CAKI-1; > 100 µM (inactive) with DU-145; > 100 µM (inactive) in the experiment on Hs-578T; 3.96 µM (inactive) in the experiment on A498; > 100 µM (inactive) in the experiment on MDA-MB-231. The GI50 in the experiment with BT-549 was > 100 µM (inactive); with UACC-257, 22.6 µM (inactive); in the experiment with SN12C, > 100 µM (inactive); with SF-295, > 100 µM (inactive); with SK-MEL-5, 2.13 µM (inactive); with MDA-MB-435, 1.9 µM (inactive). Also, the GI50 in the experiment on Malme-3M is > 100 µM (inactive); in the experiment with A549 it was 4.73 µM (inactive); in the experiment on HT-29 it was > 100 µM (inactive); with U-251 it was > 100 µM (inactive); in the experiment with SK-MEL-28, 5.14 µM (inactive).

For `CC1C/C(=N\N(C)C)C(C#N)(C#N)C1(C#N)C#N` (configuration not stated), the GI50 with SNB-75 was 9.64 µM (inactive); in the experiment with CAKI-1 it was 1.75 µM (inactive); with DU-145, 18.2 µM (inactive); in the experiment on Hs-578T it was 35.6 µM (inactive); with MDA-MB-231, 0.583 µM (active); in the experiment on BT-549 it was 4.57 µM (inactive). For the same compound, the GI50 was 13.2 µM (inactive) with UACC-257; 19 µM (inactive) in the experiment on SN12C; 0.857 µM (active) in the experiment on HL-60; 20.8 µM (inactive) with SF-295; 18.7 µM (inactive) in the experiment on SK-MEL-5; 16.7 µM (inactive) in the experiment on MDA-MB-435. For the same compound, the GI50 in the experiment on Malme-3M is 7.6 µM (inactive); with A549 it was 24.8 µM (inactive); in the experiment with HT-29, 6.53 µM (inactive); in the experiment on SK-OV-3, > 46.9 µM (inactive); in the experiment with U-251, 18.7 µM (inactive); with SK-MEL-28, 16 µM (inactive).

As to `OC1c2ccccc2CCC1CN1CCN(CCOC(c2ccc(F)cc2)c2ccc(F)cc2)CC1` (configuration not stated), the GI50 in the experiment on SNB-75 is 20.3 µM (inactive); in the experiment on CAKI-1, 25.1 µM (inactive); with DU-145, 21 µM (inactive); in the experiment on Hs-578T, 17.9 µM (inactive); with A498, 12.3 µM (inactive); with MDA-MB-231 it was 13.8 µM (inactive). Also, the GI50 with BT-549 is 12.4 µM (inactive); in the experiment on UACC-257 it was 14.7 µM (inactive); in the experiment on SN12C it was 13.1 µM (inactive); with SF-295 it was 18 µM (inactive); in the experiment with SK-MEL-5, 4.79 µM (inactive); in the experiment on MDA-MB-435, 17.5 µM (inactive). Also, the GI50 with Malme-3M was 15.2 µM (inactive); with A549, 23.6 µM (inactive); in the experiment with SK-OV-3, 94.8 µM (inactive); with U-251, 13.8 µM (inactive); with SK-MEL-28, 13.3 µM (inactive).

Turning to `Cc1ccc(S(=O)(=O)NC2C(=O)c3ccccc3C(=O)C2n2cnc3ccccc32)cc1` (configuration not stated), the GI50 in the experiment on SNB-75 is 30.3 µM (inactive); in the experiment with CAKI-1, 60 µM (inactive); in the experiment with DU-145 it was 57.9 µM (inactive); in the experiment on Hs-578T, 51.6 µM (inactive); in the experiment with MDA-MB-231, 17.9 µM (inactive); in the experiment with BT-549, 28.8 µM (inactive). For the same compound, the GI50 with UACC-257 is 28.9 µM (inactive); with SN12C it was 32.7 µM (inactive); in the experiment on HL-60, 16.6 µM (inactive); in the experiment on SF-295, 37.8 µM (inactive); with SK-MEL-5, 13.1 µM (inactive); in the experiment on MDA-MB-435 it was 18.6 µM (inactive). In addition, the GI50 in the experiment with Malme-3M is 0.214 µM (active); in the experiment on A549 it was 33.5 µM (inactive); in the experiment with HT-29, 28.1 µM (inactive); in the experiment with SK-OV-3, 66.5 µM (inactive); in the experiment with U-251 it was 26.1 µM (inactive); in the experiment on SK-MEL-28, 29.3 µM (inactive).

For `CCOP(=O)(OCC)/C(=C/c1cccs1)CC(C)=O`, the GI50 with SNB-75 is > 100 µM (inactive); in the experiment on CAKI-1, > 100 µM (inactive); in the experiment with DU-145, > 100 µM (inactive); in the experiment with Hs-578T it was > 100 µM (inactive); in the experiment on A498, 75.3 µM (inactive); in the experiment with MDA-MB-231 it was > 100 µM (inactive). Besides, the GI50 with BT-549, with UACC-257, with SN12C, with SF-295, in the experiment with SK-MEL-5 and in the experiment with MDA-MB-435 was > 100 µM (inactive) each time. For the same compound, the GI50 in the experiment on Malme-3M, with A549, in the experiment with HT-29, in the experiment with SK-OV-3, with U-251 and in the experiment with SK-MEL-28 was > 100 µM (inactive) in each case.

On to `CC(=O)OCc1ccc2c(c1)C(O)NC(=O)O2` (configuration not stated), for which the GI50 is > 100 µM (inactive) in the experiment on SNB-75; > 100 µM (inactive) in the experiment on CAKI-1; > 100 µM (inactive) in the experiment on DU-145; 18.7 µM (inactive) in the experiment on Hs-578T; > 100 µM (inactive) in the experiment on MDA-MB-231; > 100 µM (inactive) in the experiment on BT-549. Also, the GI50 in the experiment on UACC-257 was > 100 µM (inactive); in the experiment on SN12C, 50.7 µM (inactive); in the experiment on HL-60 it was > 100 µM (inactive); in the experiment on SF-295, > 100 µM (inactive); in the experiment on SK-MEL-5 it was 72.9 µM (inactive); in the experiment with MDA-MB-435, > 100 µM (inactive). Also, the GI50 was 42.4 µM (inactive) with Malme-3M; > 100 µM (inactive) in the experiment with A549; > 100 µM (inactive) with HT-29; > 100 µM (inactive) in the experiment with SK-OV-3; 58.6 µM (inactive) in the experiment with U-251; > 100 µM (inactive) in the experiment on SK-MEL-28.
